Assay results as given in patent publication US10538515B2, “Isatin-derived compounds, use of the compounds for the treatment of AIDS and method of treatment using these compounds” (FUNDAÇÄO OSWALDO CRUZ, priority 2016, dated 2020).
Like-named read-outs stand apart in the source and are kept apart here.

Tests used:
Cytotoxicity assay (MTT) = format: cell-based; conditions: human
Description: (§1) The T-lymphocyte cell line (Suptl) was cultured in an RPMI 1640 medium (GIBICO). The cultures were supplemented with 10% Fetal Bovine Serum (SFB; HyClone, Logan, Utah, USA), 100 U/mL of penicillin and […] of streptomycin, and incubated at 37° C., in an atmosphere of 5% CO2. Virus stocks were prepared using the methodology described by Souza and Denizot (SOUZA, T. M. L; RODRIGUES, D. Q.; […], V. F.; MARQUES, I. P.; DE SOUZA, M. C. B. V.; […], I. C. P. P.; BOU-HABIB, D. C; FONTES, C. F. L. Characterization of HIV-1 enzyme reverse transcriptase inhibition by the compound 6-chloro-1.4-dihydro-4-oxo-1-(β-D-ribofuranosyl) quinoline-3-carboxylic acid through kinetic and in silico studies. Current HIV Research, v. 7, No 3, page 327-335, 2009. DENIZOT, F.; LANG, R. Rapid colorimetric assay for cell growth and survival. Modifications to the tetrazolium dye procedure giving improved sensitivity and reliability. The Journal of Immunological Methods, v. 89, No 2, page 271-277, 1986).
(§2) . They were then run through an MTT assay (3-(4,5-dimethylazol-2-yl)-2.5-diphenyl tetrazolium bromide) in order to analyze cell induction infeasibility. MTT is a colorimetric method that measures mitochondrial dehydrogenase activity based on the ability of live cells to reduce 3-(4,5-methylazol-2-yl)-2.5-diphenyl tetrazolium bromide salt in the product. A […] solution of 3-(4,5-dimethylthiazol-2-yl)-2.5-diphenyl tetrazolium bromide (1 mg/ml) (MTT, Sigma) was thus added to the cells, kept in Dulbecco's Modified Eagle's medium (DMEM) without serum. The MTT was removed after three hours and, after adding […] of isopropanol acid (0.04N HCl in isopropanol), the optical density (OD) was determined using a wavelength range of 570 to 690 nm, according to KUO et al (KUO, Y. C; CHEN, C. C; TSA, W. J.; HO, Y. H. Regulation of type 1 herpes simplex virus replication in vero cells by Psychotriaserpens: relationship to gene expression, DNA replication, and protein synthesis. Antiviral Research, v. 51, No 2, pages 95 to 109, 2001). The dye coloring has different optical densities, depending on mitochondrial metabolism after treating cells with different concentrations of the new derivatives or the absence thereof. The 50% cytotoxic concentration (CC50) was calculated through linear regression analysis from the dose-response curve obtained from experimental data.

[1] = test system: Suptl cells (T-lymphocyte cell line); experiment: Cytotoxicity assay (MTT); format: cell-based; conditions: 50% cytotoxic concentration, 72 hours, MTT; read-out: CC50
Description: as §1, §2

[2] = molecular target: T1, recombinant HIV-1 reverse transcriptase (RTHXB2) (Human immunodeficiency virus type 1 group M subtype B, UniProt P04585); experiment: Reverse transcriptase inhibition activity (RDDP, [3H]dTTP incorporation); format: biochemical; conditions: for IS: CC50 / CI50
T1 construct: The enzyme is derived from a polyprotein encoded by the virus, processed by the viral protease
Description: Reverse Transcriptase Inhibition Activity
The RDDP activity was determined in 50 mM Tris HCl (pH 7.8), 6 mM MgCl2, 1 mM dithiothreitol, 50 mM KCl, 5 μM dTTP, […] poly (rA) oligo (dT) template primer (Pharmacia, Piscataway, N.J., USA) and 3 U of enzyme (one unit is the enzyme concentration incorporating dTTP […] per minute per mg of enzyme at 37° C. under standard conditions). The reaction isotope dilutions were prepared at 2 μCi of [3H] dTTP (49 Ci/mmol)/2,7μ dTTP. The reaction was initiated at 37° C., incubated for 30 minutes and halted with 0.5M EDTA. The precipitate was collected on Whatman 81 filter paper and washed with 0.1 M sodium phosphate. The incorporated nucleotides were measured by liquid scintillation. The 50% inhibitory concentration (Ciso) was determined by linear regression analysis of the dose-response curve obtained from experimental data. The polymerization reaction was conducted in the presence and absence of test substances, as well as the presence and absence of standards.
All tests were conducted on three separate occasions. At least three independent experiments were performed and triplicates were run for each concentration.

[3] = Suptl cells (T-lymphocyte cell line), 50% cytotoxic concentration, 72 hours, MTT, read-out: CC50
[4] = 50% inhibitory concentration, mean of three independent experiments, read-out: CI50 (the source's name)
[5] = 50% cytotoxic concentration, 72 hours, MTT, read-out: CC50

| SMILES | CC50 at 72 h (Cytotoxicity assay (MTT); [3]) [µM] | IS [2] | IC50 [2] [µM] | further results |
| --- | --- | --- | --- | --- |
| O=C1Nc2ccc(Cl)cc2[C@@](C#CC2CC2)(C(F)(F)F)O1 [Efavirenz, reference compound] | 88 | – | – | – |
| Cc1cn(C2CC(n3cc(CN4C(=O)C(F)(F)c5ccccc54)nn3)C(CO)O2)c(=O)[nH]c1=O (stereo not shown) [IIIa, 1-(4-(4-((3,3-difluor-2-oxoindolin-1-yl)methyl)-1H-1,2,3-triazole-1-yl)-5-(hydroxymethyl)tetrahydrofuran-2-yl)-5-methylpyrimidine-2.4(1H,3H)-dione] | – | 1392 | – | CC50 [1]: 835 µM; RT enzyme inhibition activity compared with benchmarks (in words) [2]: more active than the nevirapine and tenofovir benchmarks; IC50 [2, 4]: 0.6 µM |
| Cc1ccc2c(c1)C(F)(F)C(=O)N2Cc1cn(C2CC(n3cc(C)c(=O)[nH]c3=O)OC2CO)nn1 (stereo not shown) [IIIb, 1-(4-(4-((3,3-difluor-5-methyl-2-oxoindolin-1-yl)methyl)-1H-1,2,3-triazole-1-yl)-5-(hydroxymethyl)tetrahydrofuran-2-yl)-5-methylpyrimidine-2.4(1H,3H)-dione] | – | – | – | CC50 [1]: > 100 µM; IC50 [2, 4]: 3.2 µM |
| Cc1cn(C2CC(n3cc(CN4C(=O)C(F)(F)c5cc(Cl)ccc54)nn3)C(CO)O2)c(=O)[nH]c1=O (stereo not shown) [IIIc, 1-(4-(4-((5-chloro-3.3-difluor-2-oxoindolin-1-yl)methyl)-1H-1,2,3-triazole-1-yl)-5-(hydroxymethyl)tetrahydrofuran-2-yl)-5-methylpyrimidine-2.4(1H,3H)-dione] | – | 1318 | – | CC50 [1]: 1050 µM; RT enzyme inhibition activity compared with benchmarks (in words) [2]: more active than the nevirapine and tenofovir benchmarks; IC50 [2, 4]: 0.8 µM |
| CCOP(=O)(Cn1cc(CN2C(=O)C(F)(F)c3ccccc32)nn1)OCC [IIId, diethyl ((4-((3,3-difluor-2-oxoindolin-1-yl)methyl)-1H-1,2,3-triazole-1-yl)methyl) phosphonate] | – | 1247 | – | CC50 [1]: 1500 µM; IC50 [2, 4]: 1.2 µM |
| CCOP(=O)(Cn1cc(CN2C(=O)C(F)(F)c3cc(C)ccc32)nn1)OCC [IIIe, diethyl ((4-((3,3-difluor-5-methyl-2-oxoindolin-1-yl)methyl)-1H-1,2,3-triazole-1-yl)methyl) phosphonate] | – | – | – | CC50 [1]: > 100 µM; IC50 [2, 4]: 2.2 µM |
| CCOP(=O)(Cn1cc(CN2C(=O)C(F)(F)c3cc(Cl)ccc32)nn1)OCC [IIIf, diethyl ((4-((5-chloro-3.3-difluor-2-oxoindolin-1-yl)methyl)-1H-1,2,3-triazole-1-yl)methyl) phosphonate] | – | 2106 | – | CC50 [1]: 1900 µM; RT enzyme inhibition activity compared with benchmarks (in words) [2]: more active than the nevirapine and tenofovir benchmarks; IC50 [2, 4]: 0.9 µM |
| Cc1cn(C2CC(n3cc(CN4C(=O)C(O)(C#CC5CC5)c5ccccc54)nn3)C(CO)O2)c(=O)[nH]c1=O (stereo not shown) [IIa] | > 100 | – | 2.1 | – |
| Cc1ccc2c(c1)C(O)(C#CC1CC1)C(=O)N2Cc1cn(C2CC(n3cc(C)c(=O)[nH]c3=O)OC2CO)nn1 (stereo not shown) [IIb, 1-(4-(4-((3-(cyclopropylethanol)-3-hydroxy-5-methyl-2-oxoindolin-1-yl)methyl)-1H-1,2,3-triazole-1-yl)-5-(hydroxymethyl)tetrahydrofuran-2-yl)-5-methylpyrimidine-2.4(1H,3H)-dione] | > 100 | – | 3.3 | – |
| Cc1cn(C2CC(n3cc(CN4C(=O)C(O)(C#CC5CC5)c5cc(Cl)ccc54)nn3)C(CO)O2)c(=O)[nH]c1=O (stereo not shown) [IIc] | > 100 | – | 3.1 | – |
| CCOP(=O)(Cn1cc(CN2C(=O)C(O)(C#CC3CC3)c3ccccc32)nn1)OCC (stereo not shown) [IId] | – | – | 3.5 | CC50 at 72 h (Cytotoxicity assay (MTT); [5]): > 100 µM |
| CCOP(=O)(Cn1cc(CN2C(=O)C(O)(C#CC3CC3)c3cc(C)ccc32)nn1)OCC (stereo not shown) [IIe, diethyl ((4-((3-(cyclopropylethanol)-3-hydroxy-5-methyl-2-oxoindolin-1-yl)methyl-1,2,3-triazole-1-yl)methyl) phosphonate] | – | – | 1.8 | CC50 at 72 h (Cytotoxicity assay (MTT); [5]): > 100 µM |
| Cc1cn(C2CC(n3cc(CN4C(=O)C(=O)c5ccccc54)nn3)C(CO)O2)c(=O)[nH]c1=O (stereo not shown) [Ia, 1-((1-(2-(hydroxymethyl)-5-(5-methyl-2.4-dioxo-3.4-dihydropyrimidine-1(2H)-yl)tetrahydrofuran-3-yl)-1H-1,2,3-triazole-4-yl)methyl)indolin-2.3-dione] | > 100 | – | 2.5 | – |
| Cc1ccc2c(c1)C(=O)C(=O)N2Cc1cn(C2CC(n3cc(C)c(=O)[nH]c3=O)OC2CO)nn1 (stereo not shown) [Ib] | > 100 | – | 1.9 | – |
| Cc1cn(C2CC(n3cc(CN4C(=O)C(=O)c5cc(Cl)ccc54)nn3)C(CO)O2)c(=O)[nH]c1=O (stereo not shown) [Ic, 5-chloro-1-((1-(2-(hydroxymethyl)-5-(5-methyl-2.4-dioxo-3.4-dihydropyrimidine-1(2H)-yl)tetrahydrofuran-3-yl)-1H-1,2,3-triazole-4-yl)methyl)indolin-2.3-dione] | > 100 | – | 1.9 | – |
| CC(C)CN(CC(O)C(Cc1ccccc1)NC(=O)OC1CCOC1)S(=O)(=O)c1ccc(-n2cc(CN3C(=O)C(=O)c4ccccc43)nn2)cc1 [Id, tetrahydrofuran-3-yl ((2S)3R)-4-(4-(4-((2.3-dioxoindolin-1-yl)methyl)-1H-1,2,3-triazole-1-yl)-N-isobutylphenylsulfonamide)-3-hydroxy-1-phenylbutan-2-yl) carbamate] | > 100 | – | 1.5 | – |
| Cc1ccc2c(c1)C(=O)C(=O)N2Cc1cn(-c2ccc(S(=O)(=O)N(CC(C)C)CC(O)C(Cc3ccccc3)NC(=O)OC3CCOC3)cc2)nn1 [Ie, tetrahydrofuran-3-yl ((2S,3R)-3-hydroxy-4-(N-isobutyl-4-(4-((5-methyl-2.3-dioxoindolin-1-yl)methyl)-1H-1,2,3-triazole-1-yl)phenylsulfonamide)-1=phenylbutan-2-yl)carbamate] | > 100 | – | 0.9 | RT enzyme inhibition activity compared with benchmarks (in words) [2]: more active than the nevirapine and tenofovir benchmarks |
| CCOP(=O)(Cn1cc(CN2C(=O)C(=O)c3ccccc32)nn1)OCC [If, diethyl ((4-((2.3-dioxoindolin-1-yl)methyl)-1H-1,2,3-triazole-1-yl)methyl) phosphonate] | – | 1,782 | 1.3 | CC50 at 72 h (Cytotoxicity assay (MTT); [5]): 2320 µM |
| CCOP(=O)(Cn1cc(CN2C(=O)C(=O)c3cc(C)ccc32)nn1)OCC [Ig, diethyl ((4-((5-methyl-2.3-dioxoindolin-1-yl)methyl)-1H-1,2,3-triazole-1-yl)methyl) phosphonate] | – | 2,940 | 0.7 | CC50 at 72 h (Cytotoxicity assay (MTT); [5]): 2060 µM; RT enzyme inhibition activity compared with benchmarks (in words) [2]: more active than the nevirapine and tenofovir benchmarks |
| CCOP(=O)(Cn1cc(CN2C(=O)C(=O)c3cc(Cl)ccc32)nn1)OCC [Ih, diethyl ((4-((5-chloro-2.3-dioxoindolin-1-yl)methyl)-1H-1,2,3-triazole-1-yl)methyl) phosphonate] | – | – | 1.2 | CC50 at 72 h (Cytotoxicity assay (MTT); [5]): > 100 µM |
| Cc1ccnc2c1NC(=O)c1cccnc1N2C1CC1 [Nevirapine, reference compound] | 895 | 746 | – | – |
| Cc1cn([C@H]2C[C@H](N=[N+]=[N-])[C@@H](CO)O2)c(=O)[nH]c1=O [Zidovudine, reference compound] | – | 12,600 | 0.01 | CC50 at 72 h (Cytotoxicity assay (MTT)): 126 µM |
